According to ChEMBL document CHEMBL1201862, “PubChem BioAssay data set” (2004):
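Five concentrations, 48 hours, 96-well plates. Here, GI50 denotes the concentration required for 50% inhibition of growth.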 Active and inactive are the calls of the source. Cut-off read from the data, not from the text of the source: active = GI50 up to about 1.1 µM and inactive = higher.

Experiments:
Assay in all cases: inhibition of tumour cell growth, NCI panel, 48 h
[1] = system: CAKI-1
[2] = system: CCRF-CEM
[3] = system: COLO 205
[4] = system: Hs-578T
[5] = system: K562
[6] = system: KM12
[7] = system: M14
[8] = system: MCF7
[9] = system: MDA-MB-231
[10] = system: NCI/ADR-RES
[11] = system: OVCAR-8
[12] = system: SF-539
[13] = system: SK-MEL-2
[14] = system: SK-MEL-5
[15] = system: SNB-75
[16] = system: T47D
[17] = system: U-251
[18] = system: UACC-257
[19] = system: UO-31

Measured: GI50

[O-][S+]1SC(=S)C2C=CC=CC21 (centres undefined)
inactive: [1] > 100 µM | [2] 2.37 µM | [3] > 100 µM | [4] 84.3 µM | [5] > 100 µM | [6] > 100 µM | [7] 23.2 µM | [8] 76.9 µM | [9] > 100 µM | [10] > 100 µM | [11] > 100 µM | [12] > 100 µM | [13] > 100 µM | [14] 29.4 µM | [15] 74 µM | [16] > 100 µM | [17] > 100 µM | [18] 75.5 µM | [19] 36.8 µM

O=c1[nH]c2cc(C(F)(F)F)ccc2nc1CBr
active: [2] 1.04 µM
inactive: [1] 6.25 µM | [3] 8.02 µM | [4] 22 µM | [5] 5.73 µM | [6] 14.9 µM | [7] 8.3 µM | [8] 4.97 µM | [9] 13.5 µM | [10] 17.4 µM | [11] 10.4 µM | [12] 8.41 µM | [13] 12.2 µM | [14] 9.59 µM | [15] 16.6 µM | [16] 16 µM | [17] 9.48 µM | [18] 14.7 µM | [19] 3.4 µM

CC1=CC[C@H](C(C)C)C(C(O)[C@@H](C)O[Si](c2ccccc2)(c2ccccc2)C(C)(C)C)C1=O (some centres undefined)
inactive: [1] 14 µM | [2] 19.5 µM | [3] 17.2 µM | [4] 28 µM | [5] 9.93 µM | [6] 18.5 µM | [7] 15.3 µM | [8] 15.8 µM | [9] 15.5 µM | [10] 16.7 µM | [11] 22.8 µM | [12] 20.1 µM | [13] 15.1 µM | [14] 16.2 µM | [15] 23 µM | [16] 13.2 µM | [17] 15.8 µM | [18] 12.1 µM | [19] 15.2 µM

Clc1ccc(C2NN=C3c4ccccc4OCC32)cc1 (centres undefined)
inactive: [1] 12.2 µM | [2] 4.29 µM | [3] 2.96 µM | [4] 3.2 µM | [5] 3.39 µM | [6] 3.64 µM | [7] 2.84 µM | [8] 3.68 µM | [9] 2.39 µM | [10] 2.35 µM | [11] 3.94 µM | [12] 2.17 µM | [13] 3.48 µM | [14] 3.01 µM | [15] 5.53 µM | [16] 5.83 µM | [17] 4.09 µM | [18] 9.46 µM | [19] 7.16 µM

CCOC(=O)CO/N=C\C1=CC(=O)C2CC1C2(C)C (centres undefined)
inactive: [1] > 100 µM | [2] > 100 µM | [3] > 100 µM | [4] > 100 µM | [5] > 100 µM | [6] > 100 µM | [7] > 100 µM | [8] > 100 µM | [9] > 100 µM | [10] > 100 µM | [11] > 100 µM | [12] > 100 µM | [13] > 100 µM | [14] > 100 µM | [15] 30.1 µM | [16] > 100 µM | [17] > 100 µM | [18] > 100 µM | [19] > 100 µM

O[C@H]1[C@H]2[C@H](O)C[C@H](CCOCc3ccccc3)CN2C[C@H]1O
inactive: [1] > 100 µM | [2] > 100 µM | [3] > 100 µM | [4] > 100 µM | [5] > 100 µM | [6] > 100 µM | [7] > 100 µM | [8] > 100 µM | [9] > 100 µM | [10] > 100 µM | [11] > 100 µM | [12] > 100 µM | [13] > 100 µM | [14] > 100 µM | [15] 45.4 µM | [16] > 100 µM | [17] > 100 µM | [18] > 100 µM | [19] > 100 µM
